The values that follow come from PMC4689619 (Organic & biomolecular chemistry, 2016).

Series [1] addresses oncogenic mutant K-Ras (mGFP-K-Ras G12V) (Homo sapiens, UniProt P01116, G12V). The class given is cell-based, canine. The following applies: MDCK cells stably expressing mGFP-KRasG12V and mCherry-CAAX, 48 h; for IC50: read-out: IC50 (concentration needed for 50% PM mislocalisation).
Another series relates to SW620 Ad300 cells. As to the kind of experiment: cells. Type of series: cell-based, human.
The subject of another series is SW620 cells. Briefly: resazurin cell viability assay, SW620. Type of series: cell-based, human. (In general: Alamar Blue is a resazurin reagent that responds to reducing activity.)
Another series concerns the target P-glycoprotein (P-gp) (Homo sapiens, UniProt P08183). As to the kind of experiment: calcein AM flow cytometry assay in P-gp over-expressing SW620 Ad300 cells. The settings on record: 20 μM.
Where [2] appears, read: read-out: SW620 Ad300 IC50, P-gp over-expressing SW620 Ad300, resazurin.
Where [3] appears, read: read-out: SW620 IC50, colon cancer cell line SW620, resazurin.

Read-outs that look alike come from different tables or passages of the source.

Chain of P-glycoprotein (P-gp) (P08183 whole entry): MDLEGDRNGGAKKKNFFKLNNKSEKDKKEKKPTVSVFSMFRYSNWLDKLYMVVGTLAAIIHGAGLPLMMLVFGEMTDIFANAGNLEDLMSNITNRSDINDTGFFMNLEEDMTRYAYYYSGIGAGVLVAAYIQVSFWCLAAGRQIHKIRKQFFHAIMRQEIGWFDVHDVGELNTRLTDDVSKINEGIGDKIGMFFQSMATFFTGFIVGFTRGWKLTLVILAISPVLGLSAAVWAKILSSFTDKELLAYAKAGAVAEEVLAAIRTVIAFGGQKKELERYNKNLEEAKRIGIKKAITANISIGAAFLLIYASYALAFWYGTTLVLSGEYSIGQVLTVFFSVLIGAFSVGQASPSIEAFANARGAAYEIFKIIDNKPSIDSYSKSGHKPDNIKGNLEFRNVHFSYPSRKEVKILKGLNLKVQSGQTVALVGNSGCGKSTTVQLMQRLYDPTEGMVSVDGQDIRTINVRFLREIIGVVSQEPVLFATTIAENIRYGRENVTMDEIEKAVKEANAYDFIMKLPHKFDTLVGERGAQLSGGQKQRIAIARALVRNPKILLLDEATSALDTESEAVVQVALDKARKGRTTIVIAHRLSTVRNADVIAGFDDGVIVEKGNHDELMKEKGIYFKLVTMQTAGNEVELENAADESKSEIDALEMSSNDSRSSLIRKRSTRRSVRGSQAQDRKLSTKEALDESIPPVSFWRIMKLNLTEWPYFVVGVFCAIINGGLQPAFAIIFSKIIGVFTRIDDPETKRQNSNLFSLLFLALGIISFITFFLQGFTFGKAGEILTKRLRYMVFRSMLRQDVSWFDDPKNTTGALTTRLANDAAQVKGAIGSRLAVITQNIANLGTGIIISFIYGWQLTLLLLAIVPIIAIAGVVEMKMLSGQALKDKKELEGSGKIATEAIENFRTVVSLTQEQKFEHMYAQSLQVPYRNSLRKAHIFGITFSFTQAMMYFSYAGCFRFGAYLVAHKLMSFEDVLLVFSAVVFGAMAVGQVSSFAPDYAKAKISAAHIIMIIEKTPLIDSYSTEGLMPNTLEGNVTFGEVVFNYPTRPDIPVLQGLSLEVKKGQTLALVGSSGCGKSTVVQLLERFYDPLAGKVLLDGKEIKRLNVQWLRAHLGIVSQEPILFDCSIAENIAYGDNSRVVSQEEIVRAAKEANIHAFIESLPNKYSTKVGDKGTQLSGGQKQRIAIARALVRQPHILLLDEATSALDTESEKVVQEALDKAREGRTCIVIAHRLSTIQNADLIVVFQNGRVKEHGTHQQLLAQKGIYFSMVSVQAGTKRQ

In the case of `CC[C@H]1/C=C/C=C/C[C@@H](C)[C@H](O)[C@@](C)(O)C(=O)[C@@H](C)[C@H](O)[C@@H](C)C(=O)[C@@H](C)[C@H](O)[C@@H](C)/C=C/C(=O)O[C@@H]2[C@H](C)[C@H](CC1)O[C@@]1(O[C@@H](C[C@@H](C)O)[C@@H](C)CC1=O)[C@H]2C` [compound 2, oligomycin B], the “Emax (highest Manders coefficient, maximum extent of K-Ras PM mislocalisation)” value (“Emax” below) in series [1] was 0.67 ± 0.02. The IC50 in series [1] worked out at 0.00351 ± 0.00016 µM; in the series on SW620 Ad300 cells (setting [2]) it was 12.9 ± 1.3 µM; with SW620 cells (setting [3]) it was 17 ± 0.6 µM. Besides, the “FR (fold resistance, ratio IC50 SW620Ad300 / IC50 SW620)” value in the series with SW620 Ad300 cells is reported as 0.76.
With `CC[C@@H]1C=CC=CC[C@H](C)[C@@H](O)[C@@H](C)C(=O)[C@H](C)[C@@H](O)[C@H](C)C(=O)[C@H](C)[C@@H](O)[C@H](C)C=CC(=O)O[C@H]2[C@@H](C)[C@@H](CC1)O[C@@]1(CC[C@@H](C)[C@@H](C[C@H](C)O)O1)[C@@H]2C` [compound 3, oligomycin C], the “Emax” value in series [1] stood at 0.72 ± 0.03. Further, the “FR (fold resistance, ratio IC50 SW620Ad300 / IC50 SW620)” value with SW620 Ad300 cells came to 1.1. For the same molecule, the IC50 with SW620 Ad300 cells (Homo sapiens, SW620/AD300, read-out: SW620 Ad300 IC50) worked out at 22.5 ± 3.8 µM; in the series on SW620 cells (Homo sapiens, SW-620, read-out: SW620 IC50) it was 19.8 ± 1.2 µM.
With `CC[C@H]1/C=C/C=C/C[C@@H](C)[C@H](O)[C@@](C)(O)C(=O)[C@@H](C)[C@H](O)[C@@H](C)C(=O)[C@@H](C)[C@H](O)[C@@H](C)/C=C/C(=O)O[C@H]2C[C@@]3(CC[C@H](C)[C@H](C[C@@H](C)O)O3)O[C@@H](CC1)[C@H]2C` [compound 4, oligomycin D], the “Emax” value in series [1] is given as 0.72 ± 0.01. For the same molecule, the results for the IC50 (in series [1]; in the series with SW620 Ad300 cells (setting [2]); in the series with SW620 cells (setting [3])) were 0.00349 ± 8e-05 µM, 12.9 ± 1 µM and 36 ± 2.3 µM, respectively. For the same molecule, the “FR (fold resistance, ratio IC50 SW620Ad300 / IC50 SW620)” value in the series on SW620 Ad300 cells is listed as 0.35.
On to `CC[C@H]1/C=C/C=C/C[C@@H](C)[C@H](O)[C@@](C)(O)C(=O)[C@@H](C)[C@H](O)[C@@H](C)C(=O)[C@@H](C)[C@H](O)[C@@H](C)/C=C/C(=O)O[C@@H]2[C@H](C)[C@H](CC1)O[C@@]1(O[C@@H](C[C@@H](C)O)[C@@H](C)CC1=O)[C@]2(C)O` [compound 5, oligomycin E], for which the “Emax” value in series [1] was determined as 0.73 ± 0.06. Also, the figures for the IC50 (in series [1]; in the series on SW620 Ad300 cells (setting [2]); with SW620 cells (setting [3])) were 0.0049 ± 0.00064 µM, 4 ± 0.8 µM and 7.1 ± 0.4 µM, respectively. In the series with SW620 Ad300 cells, the “FR (fold resistance, ratio IC50 SW620Ad300 / IC50 SW620)” value is recorded as 0.56. In addition, the “FAR (fluorescence arbitrary ratio), calcein fluorescence intensity vs PBS” value at P-glycoprotein (P-gp) is on record as 48.2.
As to `CC[C@H]1/C=C/C=C/C[C@@H](C)[C@H](O)[C@@](C)(O)C(=O)[C@@H](C)[C@H](O)[C@@H](C)C(=O)[C@@H](C)[C@H](O)[C@@H](C)/C=C/C(=O)O[C@@H]2[C@H](C)[C@H](C[C@H]1O)O[C@]1(CC[C@H](C)[C@H](C[C@@H](C)O)O1)[C@H]2C` [compound 6, 21-hydroxy-oligomycin A], the “Emax” value in series [1] is 0.76 ± 0.04. Moreover, the figures for the IC50 (in series [1]; in the series on SW620 Ad300 cells (setting [2]); with SW620 cells (setting [3])) were 0.00482 ± 0.0007 µM, 11.8 ± 3.1 µM and 14.4 ± 0.6 µM, respectively. The “FR (fold resistance, ratio IC50 SW620Ad300 / IC50 SW620)” value in the series with SW620 Ad300 cells was 0.82.
The matching figures for `CC[C@H]1/C=C/C=C/C[C@@H](C)[C@H](O)[C@H](C)C(=O)[C@@H](C)[C@H](O)[C@@H](C)C(=O)[C@@H](C)[C@H](O)[C@@H](C)/C=C/C(=O)O[C@@H]2[C@H](C)[C@H](C[C@H]1O)O[C@]1(CC[C@H](C)[C@H](C[C@@H](C)O)O1)[C@H]2C` [compound 7, 21-hydroxy-oligomycin C]: 0.68 ± 0.01, 0.0141 ± 0.00024 µM, 3.1 ± 0.2 µM, 5.7 ± 0.9 µM and 0.54.
`CC[C@H]1/C=C/C=C/C[C@@H](CO)[C@H](O)[C@@](C)(O)C(=O)[C@@H](C)[C@H](O)[C@@H](C)C(=O)[C@@H](C)[C@H](O)[C@@H](C)/C=C/C(=O)O[C@@H]2[C@H](C)[C@H](CC1)O[C@@]1(O[C@@H](C[C@@H](C)O)[C@@H](C)CC1=O)[C@H]2C` [compound 8, 40-hydroxy-oligomycin B]: the “Emax” value in series [1] came to 0.73 ± 0.05. The IC50 in series [1] worked out at 0.00591 ± 0.00162 µM; with SW620 Ad300 cells (setting [2]) it was 16.4 ± 1.5 µM; with SW620 cells (setting [3]), 13.6 ± 0.4 µM. In the series on SW620 Ad300 cells, the “FR (fold resistance, ratio IC50 SW620Ad300 / IC50 SW620)” value is reported as 1.2.
On to `COc1cccc2c1C(=O)c1c(O)c3c(c(O)c1C2=O)C[C@@](O)(C(=O)CO)C[C@@H]3O[C@H]1C[C@H](N)[C@H](O)[C@H](C)O1` [doxorubicin, reference compound], for which, in the series on SW620 Ad300 cells, the “FR (fold resistance, ratio IC50 SW620Ad300 / IC50 SW620)” value is 22. Moreover, the “FR (fold resistance) with co-administration of verapamil” value with SW620 Ad300 cells (co-administration of P-gp inhibitor verapamil) is given as 2.4.
For oligomycin A [compound 1], the “Emax” value in series [1] turned out to be 0.75 ± 0.02. Also, in the series on SW620 Ad300 cells, the “FR (fold resistance, ratio IC50 SW620Ad300 / IC50 SW620)” value is reported as 0.27. For the same molecule, the IC50 in the series on SW620 Ad300 cells (setting [2]) came to 4 ± 1.1 µM; with SW620 cells (setting [3]), 14.6 ± 2.5 µM.
